Measurements published in ChEMBL document CHEMBL4507304, “Data for DCP probe TP-021” (2021).

Assays:
[1] = biological target: cGMP-dependent protein kinase 2 (Homo sapiens) (UniProt Q13237); conditions: Compound concentration 1000.0 nM
[2] = biological target: Phosphatidylinositol 4-phosphate 5-kinase type-1 alpha (Homo sapiens) (UniProt Q99755); conditions: Compound concentration 1000.0 nM
[3] = biological target: Tyrosine-protein kinase Mer (Homo sapiens) (UniProt Q12866); conditions: Compound concentration 1000.0 nM
[4] = biological target: Serine/threonine-protein kinase 38 (Homo sapiens) (UniProt Q15208); conditions: Compound concentration 1000.0 nM
Serine/threonine-protein kinase 38 (Homo sapiens), sequence (Q15208 2-465 limits assumed): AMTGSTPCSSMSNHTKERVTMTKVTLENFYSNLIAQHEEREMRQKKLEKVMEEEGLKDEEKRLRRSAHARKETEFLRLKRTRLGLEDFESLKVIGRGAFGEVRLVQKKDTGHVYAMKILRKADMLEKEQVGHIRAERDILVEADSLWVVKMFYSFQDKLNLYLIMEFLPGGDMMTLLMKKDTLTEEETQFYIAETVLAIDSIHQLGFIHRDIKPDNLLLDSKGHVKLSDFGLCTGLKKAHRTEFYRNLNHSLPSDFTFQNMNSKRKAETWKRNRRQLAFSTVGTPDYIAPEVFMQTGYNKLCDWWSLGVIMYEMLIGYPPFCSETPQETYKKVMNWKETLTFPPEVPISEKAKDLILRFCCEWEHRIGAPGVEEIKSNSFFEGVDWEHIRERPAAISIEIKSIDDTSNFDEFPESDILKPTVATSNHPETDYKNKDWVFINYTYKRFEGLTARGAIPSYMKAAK

[5] = biological target: Mitogen-activated protein kinase 9 (Homo sapiens) (UniProt P45984); conditions: Compound concentration 1000.0 nM
[6] = biological target: Alpha-2C adrenergic receptor (Homo sapiens) (UniProt P18825); conditions: Compound concentration 10.0 uM
[7] = biological target: Hormonally up-regulated neu tumor-associated kinase (Homo sapiens) (UniProt P57058); conditions: Compound concentration 1000.0 nM
Hormonally up-regulated neu tumor-associated kinase (Homo sapiens), sequence (P57058 whole entry): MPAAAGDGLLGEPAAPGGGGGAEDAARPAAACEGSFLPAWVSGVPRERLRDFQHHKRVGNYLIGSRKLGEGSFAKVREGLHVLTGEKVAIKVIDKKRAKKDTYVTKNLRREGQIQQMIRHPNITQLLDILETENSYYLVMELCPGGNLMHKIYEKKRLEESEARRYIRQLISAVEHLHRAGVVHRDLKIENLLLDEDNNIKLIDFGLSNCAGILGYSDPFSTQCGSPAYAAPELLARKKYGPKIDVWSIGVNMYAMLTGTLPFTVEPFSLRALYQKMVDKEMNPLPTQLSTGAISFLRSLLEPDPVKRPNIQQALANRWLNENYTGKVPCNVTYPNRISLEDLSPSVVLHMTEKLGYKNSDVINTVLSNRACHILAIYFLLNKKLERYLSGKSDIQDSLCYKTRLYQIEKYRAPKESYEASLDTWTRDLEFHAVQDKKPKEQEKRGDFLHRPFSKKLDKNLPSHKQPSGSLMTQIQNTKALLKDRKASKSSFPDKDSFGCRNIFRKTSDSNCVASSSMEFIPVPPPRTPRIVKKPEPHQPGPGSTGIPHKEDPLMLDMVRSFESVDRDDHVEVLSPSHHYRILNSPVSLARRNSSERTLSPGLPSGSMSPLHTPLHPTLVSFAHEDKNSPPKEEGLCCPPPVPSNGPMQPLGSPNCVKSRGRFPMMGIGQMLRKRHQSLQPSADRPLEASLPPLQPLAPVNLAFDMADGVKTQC

[8] = biological target: Calcium/calmodulin-dependent protein kinase type 1G (Homo sapiens) (UniProt Q96NX5); conditions: Compound concentration 1000.0 nM
[9] = system: Epidermal growth factor receptor (Homo sapiens), P00533 [UNDEFINED MUTATION]; conditions: Compound concentration 1000.0 nM
[10] = biological target: Mitotic checkpoint serine/threonine-protein kinase BUB1 (Homo sapiens) (UniProt O43683); conditions: Compound concentration 1000.0 nM
[11] = biological target: Serine/threonine-protein kinase haspin (Homo sapiens) (UniProt Q8TF76); conditions: Compound concentration 1000.0 nM
[12] = biological target: Histamine H2 receptor (Homo sapiens) (UniProt P25021); conditions: Compound concentration 10.0 uM
[13] = biological target: Vascular endothelial growth factor receptor 1 (Homo sapiens) (UniProt P17948); conditions: Compound concentration 1000.0 nM
Vascular endothelial growth factor receptor 1 (Homo sapiens), sequence (P17948 whole entry): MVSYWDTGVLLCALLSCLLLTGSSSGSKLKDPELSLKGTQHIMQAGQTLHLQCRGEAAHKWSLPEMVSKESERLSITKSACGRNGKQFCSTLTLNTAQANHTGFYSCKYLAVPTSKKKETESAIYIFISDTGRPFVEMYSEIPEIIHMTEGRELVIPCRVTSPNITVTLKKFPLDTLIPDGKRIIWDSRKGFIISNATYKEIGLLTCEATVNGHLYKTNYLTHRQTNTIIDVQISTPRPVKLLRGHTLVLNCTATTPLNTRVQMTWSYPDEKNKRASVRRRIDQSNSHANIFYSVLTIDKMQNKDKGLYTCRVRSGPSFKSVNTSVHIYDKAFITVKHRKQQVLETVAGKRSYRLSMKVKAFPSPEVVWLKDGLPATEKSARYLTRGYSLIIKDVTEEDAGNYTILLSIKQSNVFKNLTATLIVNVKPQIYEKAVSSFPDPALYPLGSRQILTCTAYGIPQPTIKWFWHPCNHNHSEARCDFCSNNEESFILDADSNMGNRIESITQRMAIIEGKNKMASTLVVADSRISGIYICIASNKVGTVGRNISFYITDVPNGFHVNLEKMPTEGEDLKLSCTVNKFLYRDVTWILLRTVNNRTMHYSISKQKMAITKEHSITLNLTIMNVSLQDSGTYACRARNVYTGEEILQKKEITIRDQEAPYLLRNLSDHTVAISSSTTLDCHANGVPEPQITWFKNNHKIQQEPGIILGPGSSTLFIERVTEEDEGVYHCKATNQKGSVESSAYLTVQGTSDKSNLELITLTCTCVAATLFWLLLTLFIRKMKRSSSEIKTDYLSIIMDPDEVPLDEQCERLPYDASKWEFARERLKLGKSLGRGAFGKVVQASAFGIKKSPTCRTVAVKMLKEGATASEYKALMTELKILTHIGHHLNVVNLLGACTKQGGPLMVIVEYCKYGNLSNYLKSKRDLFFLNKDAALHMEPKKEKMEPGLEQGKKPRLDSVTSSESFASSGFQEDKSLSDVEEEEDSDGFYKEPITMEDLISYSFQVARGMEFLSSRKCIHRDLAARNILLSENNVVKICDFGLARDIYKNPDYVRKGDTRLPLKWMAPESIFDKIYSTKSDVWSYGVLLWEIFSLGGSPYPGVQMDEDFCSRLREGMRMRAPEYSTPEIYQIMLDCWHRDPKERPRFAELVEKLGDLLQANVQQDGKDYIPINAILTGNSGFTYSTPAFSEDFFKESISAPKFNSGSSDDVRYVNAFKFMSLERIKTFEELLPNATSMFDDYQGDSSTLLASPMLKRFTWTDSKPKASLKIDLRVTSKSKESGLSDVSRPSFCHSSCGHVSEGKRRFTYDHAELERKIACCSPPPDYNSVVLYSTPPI

[14] = biological target: Serine/threonine-protein kinase SBK1 (Homo sapiens) (UniProt Q52WX2); conditions: Compound concentration 1000.0 nM
[15] = biological target: Protein-tyrosine kinase 6 (Homo sapiens) (UniProt Q13882); conditions: Compound concentration 1000.0 nM
[16] = biological target: Cyclin-dependent kinase 19 (Homo sapiens) (UniProt Q9BWU1); conditions: Compound concentration 1000.0 nM
[17] = biological target: Receptor tyrosine-protein kinase erbB-3 (Homo sapiens) (UniProt P21860); conditions: Compound concentration 1000.0 nM
[18] = biological target: Ribosomal protein S6 kinase alpha-6 (Homo sapiens) (UniProt Q9UK32); conditions: Compound concentration 1000.0 nM
[19] = biological target: Mitogen-activated protein kinase 14 (Homo sapiens) (UniProt Q16539); conditions: Compound concentration 1000.0 nM
[20] = biological target: Phosphatidylinositol 5-phosphate 4-kinase type-2 gamma (Homo sapiens) (UniProt Q8TBX8); conditions: Compound concentration 1000.0 nM
[21] = biological target: Muscarinic acetylcholine receptor M5 (Homo sapiens) (UniProt P08912); conditions: Compound concentration 10.0 uM
[22] = biological target: Protein-tyrosine kinase 2-beta (Homo sapiens) (UniProt Q14289); conditions: Compound concentration 1000.0 nM
[23] = biological target: Glycogen synthase kinase-3 alpha (Homo sapiens) (UniProt P49840); conditions: Compound concentration 1000.0 nM
[24] = system: Proto-oncogene tyrosine-protein kinase receptor Ret (Homo sapiens), P07949 [V804M]; conditions: Compound concentration 1000.0 nM
[25] = biological target: Serine/threonine-protein kinase N1 (Homo sapiens) (UniProt Q16512); conditions: Compound concentration 1000.0 nM
[26] = biological target: Transient receptor potential cation channel subfamily M member 6 (Homo sapiens) (UniProt Q9BX84); conditions: Compound concentration 1000.0 nM
[27] = biological target: Receptor-type tyrosine-protein kinase FLT3 (Homo sapiens) (UniProt P36888); conditions: Compound concentration 1000.0 nM
[28] = biological target: Serine/threonine-protein kinase Nek4 (Homo sapiens) (UniProt P51957); conditions: Compound concentration 1000.0 nM
[29] = biological target: Bone morphogenetic protein receptor type-1B (Homo sapiens) (UniProt O00238); conditions: Compound concentration 1000.0 nM
[30] = biological target: Myosin-IIIb (Homo sapiens) (UniProt Q8WXR4); conditions: Compound concentration 1000.0 nM
[31] = biological target: Mitogen-activated protein kinase kinase kinase 10 (Homo sapiens) (UniProt Q02779); conditions: Compound concentration 1000.0 nM
[32] = biological target: Maternal embryonic leucine zipper kinase (Homo sapiens) (UniProt Q14680); conditions: Compound concentration 1000.0 nM
[33] = biological target: Ephrin type-A receptor 4 (Homo sapiens) (UniProt P54764); conditions: Compound concentration 1000.0 nM
[34] = biological target: Serine/threonine-protein kinase Nek6 (Homo sapiens) (UniProt Q9HC98); conditions: Compound concentration 1000.0 nM
[35] = biological target: Mitogen-activated protein kinase 6 (Homo sapiens) (UniProt Q16659); conditions: Compound concentration 1000.0 nM
[36] = system: eIF-2-alpha kinase GCN2 (Homo sapiens), Q9P2K8 [S808G]; conditions: Compound concentration 1000.0 nM
[37] = biological target: Histamine H1 receptor (Homo sapiens) (UniProt P35367); conditions: Compound concentration 10.0 uM
Histamine H1 receptor (Homo sapiens), sequence (P35367 whole entry): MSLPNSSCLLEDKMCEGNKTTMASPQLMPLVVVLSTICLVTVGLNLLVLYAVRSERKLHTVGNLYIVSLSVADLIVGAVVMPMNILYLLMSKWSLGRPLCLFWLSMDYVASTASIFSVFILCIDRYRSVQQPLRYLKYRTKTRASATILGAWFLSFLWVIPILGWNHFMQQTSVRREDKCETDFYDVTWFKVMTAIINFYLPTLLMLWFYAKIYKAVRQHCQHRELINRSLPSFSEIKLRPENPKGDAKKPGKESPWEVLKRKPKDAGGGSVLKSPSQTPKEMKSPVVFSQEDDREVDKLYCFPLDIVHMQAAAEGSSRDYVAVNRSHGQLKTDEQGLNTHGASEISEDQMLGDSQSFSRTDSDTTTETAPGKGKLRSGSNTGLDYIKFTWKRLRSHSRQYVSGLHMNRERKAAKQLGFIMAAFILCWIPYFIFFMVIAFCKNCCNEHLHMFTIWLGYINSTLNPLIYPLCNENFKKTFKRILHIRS

[38] = biological target: Calcium/calmodulin-dependent protein kinase type 1 (Homo sapiens) (UniProt Q14012); conditions: Compound concentration 1000.0 nM
Calcium/calmodulin-dependent protein kinase type 1 (Homo sapiens), sequence (Q14012 whole entry, looked up): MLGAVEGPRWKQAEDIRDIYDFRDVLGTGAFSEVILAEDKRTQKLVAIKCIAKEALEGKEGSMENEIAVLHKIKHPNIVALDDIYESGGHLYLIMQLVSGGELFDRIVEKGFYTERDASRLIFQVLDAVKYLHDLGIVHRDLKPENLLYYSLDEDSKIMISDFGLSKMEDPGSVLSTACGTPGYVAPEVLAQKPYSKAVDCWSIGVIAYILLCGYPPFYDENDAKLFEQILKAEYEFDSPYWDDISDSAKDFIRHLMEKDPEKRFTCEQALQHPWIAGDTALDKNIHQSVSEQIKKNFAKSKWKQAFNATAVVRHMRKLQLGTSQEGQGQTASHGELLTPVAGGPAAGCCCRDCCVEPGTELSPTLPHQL

[39] = biological target: SRSF protein kinase 2 (Homo sapiens) (UniProt P78362); conditions: Compound concentration 1000.0 nM
SRSF protein kinase 2 (Homo sapiens), sequence (P78362 whole entry, looked up): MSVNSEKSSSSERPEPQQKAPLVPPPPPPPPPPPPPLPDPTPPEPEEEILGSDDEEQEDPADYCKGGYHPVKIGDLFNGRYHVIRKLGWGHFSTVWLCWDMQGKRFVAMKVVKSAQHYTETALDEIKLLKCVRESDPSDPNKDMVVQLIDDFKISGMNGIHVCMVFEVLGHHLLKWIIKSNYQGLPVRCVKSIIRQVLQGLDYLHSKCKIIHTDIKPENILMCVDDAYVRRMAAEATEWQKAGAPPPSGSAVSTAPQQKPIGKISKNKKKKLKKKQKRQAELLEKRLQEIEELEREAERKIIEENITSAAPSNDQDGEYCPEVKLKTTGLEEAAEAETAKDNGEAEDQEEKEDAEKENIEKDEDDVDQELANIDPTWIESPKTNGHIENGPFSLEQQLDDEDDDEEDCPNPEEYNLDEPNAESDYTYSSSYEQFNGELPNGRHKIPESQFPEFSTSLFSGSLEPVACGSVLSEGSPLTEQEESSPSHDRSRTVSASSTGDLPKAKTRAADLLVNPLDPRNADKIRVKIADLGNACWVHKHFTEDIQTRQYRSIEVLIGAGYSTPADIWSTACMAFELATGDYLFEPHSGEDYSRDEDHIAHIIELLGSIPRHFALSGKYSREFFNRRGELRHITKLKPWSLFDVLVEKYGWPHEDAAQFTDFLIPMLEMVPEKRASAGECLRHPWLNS

[40] = biological target: Serine/threonine-protein kinase Sgk2 (Homo sapiens) (UniProt Q9HBY8); conditions: Compound concentration 1000.0 nM
[41] = biological target: Fibroblast growth factor receptor 1 (Homo sapiens) (UniProt P11362); conditions: Compound concentration 1000.0 nM
[42] = biological target: Mitogen-activated protein kinase 15 (Homo sapiens) (UniProt Q8TD08); conditions: Compound concentration 1000.0 nM
[43] = biological target: Ribosomal protein S6 kinase alpha-1 (Homo sapiens) (UniProt Q15418); conditions: Compound concentration 1000.0 nM
Ribosomal protein S6 kinase alpha-1 (Homo sapiens), sequence (Q15418 whole entry): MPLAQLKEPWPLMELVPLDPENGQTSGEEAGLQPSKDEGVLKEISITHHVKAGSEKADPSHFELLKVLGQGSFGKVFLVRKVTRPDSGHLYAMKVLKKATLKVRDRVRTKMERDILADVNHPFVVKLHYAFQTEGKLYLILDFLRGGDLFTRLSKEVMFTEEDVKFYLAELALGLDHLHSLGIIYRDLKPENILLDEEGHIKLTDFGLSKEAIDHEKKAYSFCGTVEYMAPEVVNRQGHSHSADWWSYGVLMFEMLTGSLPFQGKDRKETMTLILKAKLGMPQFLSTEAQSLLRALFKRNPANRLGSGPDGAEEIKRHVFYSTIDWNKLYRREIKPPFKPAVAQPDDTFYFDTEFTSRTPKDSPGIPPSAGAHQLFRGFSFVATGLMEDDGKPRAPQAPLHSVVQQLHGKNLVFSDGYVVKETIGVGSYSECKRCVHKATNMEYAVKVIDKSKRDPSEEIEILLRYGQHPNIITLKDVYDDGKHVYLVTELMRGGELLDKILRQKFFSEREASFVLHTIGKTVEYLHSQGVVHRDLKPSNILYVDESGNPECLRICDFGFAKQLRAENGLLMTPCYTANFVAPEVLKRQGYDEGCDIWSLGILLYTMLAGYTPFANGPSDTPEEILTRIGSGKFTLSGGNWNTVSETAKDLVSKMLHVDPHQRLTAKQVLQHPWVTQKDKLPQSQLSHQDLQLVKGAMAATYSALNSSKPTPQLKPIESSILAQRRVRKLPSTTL

[44] = biological target: Sigma intracellular receptor 2 (Homo sapiens) (UniProt Q5BJF2); conditions: Compound concentration 10.0 uM
Sigma intracellular receptor 2 (Homo sapiens), sequence (Q5BJF2 whole entry): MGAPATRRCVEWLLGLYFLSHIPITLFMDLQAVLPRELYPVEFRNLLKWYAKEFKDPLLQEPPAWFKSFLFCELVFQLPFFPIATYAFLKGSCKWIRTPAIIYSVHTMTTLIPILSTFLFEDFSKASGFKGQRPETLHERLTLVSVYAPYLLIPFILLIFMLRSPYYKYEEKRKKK

[45] = biological target: Myotonin-protein kinase (Homo sapiens) (UniProt Q09013); conditions: Compound concentration 1000.0 nM

N#Cc1ccc(Nc2ccc3[nH]c(=O)[nH]c3c2)c(Cl)c1
inactive: residual activity [1] 87% | residual activity [2] 100% | residual activity [3] 100% | residual activity [4] 95% | residual activity [5] 100% | inhibition [6] 4.16% | residual activity [7] 98% | residual activity [8] 100% | residual activity [9] 62% | residual activity [10] 100% | residual activity [11] 100% | inhibition [12] 2.26% | residual activity [13] 100% | residual activity [14] 93% | residual activity [15] 100% | residual activity [16] 77% | residual activity [17] 97% | residual activity [18] 84% | residual activity [19] 93% | residual activity [20] 100% | inhibition [21] 12.6% | residual activity [22] 100% | residual activity [23] 100% | residual activity [24] 93% | residual activity [25] 100% | residual activity [26] 100% | residual activity [27] 97% | residual activity [28] 100% | residual activity [29] 100% | residual activity [30] 100% | residual activity [31] 99% | residual activity [32] 95% | residual activity [33] 100% | residual activity [34] 100% | residual activity [35] 100% | residual activity [36] 93% | inhibition [37] 14.7% | residual activity [38] 86% | residual activity [39] 100% | residual activity [40] 65% | residual activity [41] 100% | residual activity [42] 100% | residual activity [43] 100% | inhibition [44] -4.12% | residual activity [45] 81%

O=C1CCc2cc(Nc3cc(OC4CCOCC4)c([N+](=O)[O-])cc3Cl)ccc2N1
inactive: residual activity [1] 85% | residual activity [2] 100% | residual activity [3] 100% | residual activity [4] 88% | residual activity [5] 86% | inhibition [6] -0.13% | residual activity [7] 93% | residual activity [8] 100% | residual activity [9] 65% | residual activity [10] 89% | residual activity [11] 100% | inhibition [12] 20.6% | residual activity [13] 100% | residual activity [14] 97% | residual activity [15] 100% | residual activity [16] 72% | residual activity [17] 98% | residual activity [18] 77% | residual activity [19] 100% | residual activity [20] 100% | inhibition [21] 12.6% | residual activity [22] 83% | residual activity [23] 100% | residual activity [24] 100% | residual activity [25] 100% | residual activity [26] 100% | residual activity [27] 99% | residual activity [28] 100% | residual activity [29] 87% | residual activity [30] 97% | residual activity [31] 94% | residual activity [32] 77% | residual activity [33] 84% | residual activity [34] 96% | residual activity [35] 100% | residual activity [36] 85% | inhibition [37] 17% | residual activity [38] 93% | residual activity [39] 100% | residual activity [40] 80% | residual activity [41] 93% | residual activity [42] 96% | residual activity [43] 100% | inhibition [44] 27.1% | residual activity [45] 96%
